Data taken from patent US8188059B2, “Compounds and methods for modulating expression of GCGR” (Isis Pharmaceuticals, Inc., priority 2006, dated 2012).
Strand notation (5' to 3'): a small letter for the sugar, then the base; units joined by * are phosphorothioate-linked, units joined directly phosphodiester-linked; [ ] holds rarer units or linkages, { } end groups; capitals alone tell only the bases. e = 2'-O-(2-methoxyethyl) (MOE); k = constrained ethyl (cEt); [5mC] = 5-methylcytosine; d = 2'-deoxy (DNA)

Tests used:
[1] = test system: GCGR mRNA; assay: Antisense inhibition of GCGR in HepG2 cells, 25-200 nM (Example 21, Table 79); format: cell-based, human; details: for percent reduction in GCGR mRNA: HepG2 cells, relative to untreated control cells
Protocol: Short antisense compounds targeted to a GCGR nucleic acid were tested for their effects on GCGR mRNA in vitro.
Cultured HepG2 cells at a density of 10000 cells per well in a 96-well plate were treated as described herein with 25, 50, 100 or 200 nM of antisense oligonucleotide. After the treatment period, RNA was isolated from the cells and GCGR mRNA levels were measured by quantitative real-time PCR, as described herein. GCGR mRNA levels were adjusted according to total RNA content as measured by RIBOGREEN®. Results are presented as percent reduction in GCGR mRNA, relative to untreated control cells.

[2] = test system: monkey GCGR mRNA; assay: Antisense inhibition of GCGR in primary monkey hepatocytes, 25-200 nM (Example 21, Table 80); format: cell-based; details: relative to untreated control cells
Protocol: Additional short antisense compounds targeted to a GCGR nucleic acid were tested for their effects on monkey GCGR mRNA in vitro. Cultured primary monkey hepatocytes were treated as described herein with 25, 50, 100 or 200 nM of short antisense compound. After the treatment period, RNA was isolated from the cells and GCGR mRNA levels were measured by quantitative real-time PCR, as described herein. GCGR mRNA levels were adjusted according to total RNA content as measured by RIBOGREEN®. Results are presented in Table 80 as percent reduction in GCGR mRNA, relative to untreated control cells.

[3] = test system: PTP1B mRNA; assay: Antisense inhibition of human PTP1B in HuVEC cells at 3 nM (Example 23, Table 84); format: cell-based
Protocol: Short antisense compounds targeted to a PTP1B nucleic acid were tested for their effects on PTP1B mRNA in vitro. Cultured HuVEC cells at a density of 5000 cells per well in a 96-well plate were treated as described herein with 3 nM of short antisense compound. After the treatment period, RNA was isolated from the cells and PTP1B mRNA levels were measured by quantitative real-time PCR, as described herein. PTP1B mRNA levels were adjusted according to total RNA content as measured by RIBOGREEN®. Results are presented as percent inhibition of PTP1B (% Inhib), relative to untreated control cells.

[4] = test system: PTP1B mRNA; assay: Antisense inhibition of human PTP1B in HepG2 cells at 25 nM (Example 24, Table 85); format: cell-based
Protocol: Short antisense compounds targeted to a PTP1B nucleic acid were tested for their effects on PTP1B mRNA in vitro. Cultured HepG2 cells at a density of 10000 cells per well in a 96-well plate were treated with 25 nM of antisense oligonucleotide. After the treatment period, RNA was isolated from the cells and PTP1B mRNA levels were measured by quantitative real-time PCR, as described herein. PTP1B mRNA levels were adjusted according to total RNA content as measured by RIBOGREEN®. Results are presented as percent inhibition (% Ihib) of PTP1B, relative to untreated control cells.

[5] = test system: rat SGLT2 mRNA; assay: Rat SGLT2 mRNA levels in kidney, 1-10-1 and 1-10-2 MOE gapmers, Sprague-Dawley rats (Example 13, Table 63); format: in vivo
Excerpt: 1-10-1 and 1-10-2 MOE gapmer antisense compounds, provided in Table 62, were designed to target different regions of the mouse or rat SGLT2 RNA. All short antisense compounds in Table 62 are chimeric oligonucleotides (“gapmers”) either 12 or 13 nucleotides in length, composed of a central “gap” segment consisting of ten 2′-deoxynucleotides, which are flanked on the 5′ side by a one-nucleoside “wing” and on the 3′ side by a two or one-nucleotide “wing”. […] All cytidine residues are 5-methylcytidines.
The short antisense compounds were analyzed for their effect on rat SGLT2 mRNA levels. Data are ranges taken from three experiments in which Male Sprague-Dawley rats (170-200 g) were dosed twice per week for three weeks with 450, 150 or 50 nmol/kg of either a 1-10-1 or 1-10-2 MOE gapmer given by intraperitoneal injection. Rats were sacrificed 48 hours following last administration and evaluated for SGLT2 mRNA levels in kidney. Target levels were determined by RT, real-time PCR as described by other examples herein. PCR results were normalized to an internal ISIS control.

[6] = test system: mouse SGLT2 mRNA; assay: Mouse SGLT2 mRNA levels in kidney, 1-10-1 MOE gapmers, Balb/c mice (Example 14, Table 65); format: in vivo
Protocol: The short antisense compounds were analyzed for their effect on mouse SGLT2 mRNA levels. Data was taken from three experiments in which Male 6-week old Balb/c mice were dosed twice per week for two weeks with 450, 150, or 50 nmol/kg of one of the above 1-10-1 MOE gapmers given by intraperitoneal injection. Mice were sacrificed 48 hours following last administration and evaluated for SGLT2 mRNA levels in kidney. Target levels were determined by RT, real-time PCR as described by other examples herein. PCR results were normalized to an internal ISIS control.

[7] = test system: rat SGLT2 mRNA; assay: Rat SGLT2 mRNA levels in kidney, 1-10-1 gapmers at 250 nmol/kg, Sprague-Dawley rats (Example 14, Table 66); format: in vivo; details: 250 nmol/kg i.p. twice per week for three weeks; Sprague-Dawley rats; kidney
Protocol: The effect of the above 1-10-1gapmers (see Table 64 above) on rat SGLT2 mRNA levels. Data are taken from four experiments in which male Sprague-Dawley rats (170-200 g) were dosed twice per week for three weeks with 250 nmol/kg given by intraperitoneal injection. Rats were sacrificed 48 hours following last administration and evaluated for SGLT2 mRNA levels in kidney. Target levels were determined by RT, real-time PCR as described by other examples herein. PCR results were normalized to an internal ISIS control.

[8] = test system: mouse SGLT2 mRNA; assay: Mouse SGLT2 mRNA levels in kidney, additional 1-10-1 and 2-8-2 MOE gapmers, Balb/c mice (Example 15, Table 68); format: in vivo
[9] = test system: mouse SGLT2 mRNA; assay: Mouse SGLT2 mRNA levels in kidney, MOE versus Methyleneoxy BNA gapmers, Balb/c mice (Example 15, Table 69); format: in vivo
Protocol: The effect of ISIS 379692 1-10-1 MOE gapmer and ISIS 388625 2-8-2 MOE gapmer are compared with the effect of ISIS 392170 1-10-1 Methyleneoxy BNA Gapmer and ISIS 392173 2-8-2 Methyleneoxy BNA Gapmer (see Table 69) on mouse SGLT2 mRNA levels in vivo. Data are taken from three experiments in which male 6-week old Balb/c mice were dosed twice per week for three weeks with 5, 25 and 125 nmol/kg of either the ISIS 379692 1-10-1 MOE gapmer or the ISIS 388625 2-8-2 MOE gapmer given by intraperitoneal injection. Mice were sacrificed 48 hours following last administration and evaluated for SGLT2 mRNA levels in kidney. Target levels were determined by RT, real-time PCR as described by other examples herein. PCR results were normalized to an internal ISIS control. The data are expressed as percent change (“+” indicates an increase, “−” indicates a decrease) relative to saline treated animals and are illustrated in Table 69.

[10] = test system: rat SGLT2 mRNA; assay: Rat SGLT2 mRNA levels in kidney, ISIS 379692 and ISIS 388625, Sprague-Dawley rats (Example 15, Table 70); format: in vivo; details: i.p. twice per week for three weeks
Protocol: The effect of ISIS 379692 1-10-1 MOE gapmer and ISIS 388625 MOE 2-8-2 gapmer (see Table 70) on rat SGLT2 mRNA levels in vivo. […] Rats were sacrificed 48 hours following last administration and evaluated for SGLT2 levels in kidney. Target levels were determined by RT, real-time PCR as described by other examples herein. PCR results were normalized to an internal ISIS control.

[11] = test system: ApoB mRNA; assay: ApoB mRNA in liver of Balb/c mice, single i.p. dose 8, 4, 2 or 1 μmol/kg, with ED50 (Example 28, Table 92); format: in vivo, mouse; details: ApoB mRNA in liver, single i.p. administration
Protocol: The short antisense compounds tested were ISIS 387462 and ISIS 398296. Each dose group consisted of four animals. A 5-10-5 MOE gapmer was used for a control treatment. Mice were sacrificed approximately 48 hours following the final dose. Liver tissue was collected for RNA isolation, and blood was collected for serum chemistry analyses. ApoB mRNA levels were measured by real-time PCR as described herein. ApoB mRNA levels were normalized to RNA levels as determined by RIBOGREEN, and are presented in Table 92 as percent inhibition relative to ApoB mRNA levels in saline-treated control animals.
At the 8 umol/kg dose, ApoB inhibition by the short antisense compounds was greater than observed with a 5-10-5 MOE gapmer at an equivalent dose. […] Triglycerides were reduced at the highest dose.

[12] = 50 nmol/kg i.p. twice per week for three weeks
[13] = 150 nmol/kg i.p. twice per week for three weeks
[14] = 450 nmol/kg i.p. twice per week for three weeks
[15] = 50 nmol/kg i.p. twice per week for two weeks
[16] = 150 nmol/kg i.p. twice per week for two weeks
[17] = 450 nmol/kg i.p. twice per week for two weeks
[18] = 0.02 umol/kg i.p. twice per week for three weeks
[19] = 0.1 umol/kg i.p. twice per week for three weeks
[20] = 0.5 umol/kg i.p. twice per week for three weeks

## 327161 (antisense eA*eG*e[5mC]*dT*dG*d[5mC]*dT*dG*dT*dA*d[5mC]*eA*eT*e[5mC]) [compound 327161]
[1]; 25 nM
  percent reduction in GCGR mRNA: −36
[1]; 50 nM
  percent reduction in GCGR mRNA: −30
[1]; 100 nM
  percent reduction in GCGR mRNA: −33
[1]; 200 nM
  percent reduction in GCGR mRNA: −64
[2]; 25 nM
  percent reduction in GCGR mRNA: −19
[2]; 50 nM
  percent reduction in GCGR mRNA: −33
[2]; 100 nM
  percent reduction in GCGR mRNA: −55
[2]; 200 nM
  percent reduction in GCGR mRNA: −54

## 404137 (antisense e[5mC]*eA*dG*dT*dG*dT*dG*d[5mC]*dA*d[5mC]*dA*d[5mC]*eA*eG) [compound 404137]
[3]
  % Inhib (PTP1B mRNA): 76%
[4]
  % Inhib (PTP1B mRNA): 71%

## 404138 (antisense e[5mC]*eT*d[5mC]*dA*dG*dT*dG*dT*dG*d[5mC]*dA*d[5mC]*eA*e[5mC]) [compound 404138]
[3]
  % Inhib (PTP1B mRNA): 76%
[4]
  % Inhib (PTP1B mRNA): 86%

## 404139 (antisense eG*eT*dG*d[5mC]*dA*d[5mC]*dA*d[5mC]*dA*dG*d[5mC]*dT*eG*eA) [compound 404139]
[3]
  % Inhib (PTP1B mRNA): 80%
[4]
  % Inhib (PTP1B mRNA): 45%

## 404140 (antisense eG*e[5mC]*dA*d[5mC]*dA*d[5mC]*dA*dG*d[5mC]*dT*dG*dA*eG*eG) [compound 404140]
[3]
  % Inhib (PTP1B mRNA): 73%
[4]
  % Inhib (PTP1B mRNA): 93%

## ISIS 327161: GCGR; 3-10-3 MOE gapmer (antisense eA*eG*e[5mC]*dT*dG*d[5mC]*dT*dG*dT*dA*d[5mC]*eA*eT*e[5mC])
[1]; HepG2 cells, 25, 50, 100 or 200 nM
  GCGR mRNA: reduced GCGR mRNA in a dose-dependent manner

## ISIS 379692: SGLT2; 1-10-1 MOE gapmer (antisense eT*dG*dT*dT*d[5mC]*d[5mC]*dA*dG*d[5mC]*d[5mC]*d[5mC]*eA)
[5]; [12]
  % change in SGLT2 expression relative to saline: −80%
[5]; [13]
  % change in SGLT2 expression relative to saline: −85%
[5]; [14]
  % change in SGLT2 expression relative to saline: −90%
[6]; [15]
  % change in SGLT2 expression relative to saline: −52.5%
[6]; [16]
  % change in SGLT2 expression relative to saline: −70%
[6]; [17]
  % change in SGLT2 expression relative to saline: −80%
[7]
  % change in SGLT2 expression relative to saline: −85%
[8]; [18]
  % change in SGLT2 expression relative to saline: −55%
[8]; [19]
  % change in SGLT2 expression relative to saline: −75%
[8]; [20]
  % change in SGLT2 expression relative to saline: −85%
[9]; 5 nmol/kg i.p. twice per week for three weeks
  SGLT2 mRNA, percent change relative to saline treated animals: −7 percent change
[9]; 25 nmol/kg i.p. twice per week for three weeks
  SGLT2 mRNA, percent change relative to saline treated animals: −46 percent change
[9]; 125 nmol/kg i.p. twice per week for three weeks
  SGLT2 mRNA, percent change relative to saline treated animals: −58 percent change
[10]; dose 3.125 umol/kg (head)
  % change in SGLT2 expression relative to saline: +30%
[10]; dose 12.5 umol/kg (head)
  % change in SGLT2 expression relative to saline: −15%
[10]; dose 50 umol/kg (head)
  % change in SGLT2 expression relative to saline: −65%
[10]; dose 200 umol/kg (head)
  % change in SGLT2 expression relative to saline: −80%

## ISIS 379699: SGLT2; GGCATGAGCTTC 1-10-1 MOE (antisense eG*dG*d[5mC]*dA*dT*dG*dA*dG*d[5mC]*dT*dT*e[5mC])
[5]; [12]
  % change in SGLT2 expression relative to saline: −60%
[5]; [13]
  % change in SGLT2 expression relative to saline: −75%
[5]; [14]
  % change in SGLT2 expression relative to saline: −83%
[6]; [15]
  % change in SGLT2 expression relative to saline: −42.5%
[6]; [16]
  % change in SGLT2 expression relative to saline: −62.5%
[6]; [17]
  % change in SGLT2 expression relative to saline: −80%
[7]
  % change in SGLT2 expression relative to saline: −75%
[8]; [18]
  % change in SGLT2 expression relative to saline: −30%
[8]; [19]
  % change in SGLT2 expression relative to saline: −60%
[8]; [20]
  % change in SGLT2 expression relative to saline: −75%

## ISIS 398296: ApoB; GGTACATGGAAGTC 2-10-2 (6′S)-6′-methyl-Methyleneoxy BNA Unmodified Cytosines (antisense kG*kG*dT*dA*dC*dA*dT*dG*dG*dA*dA*dG*kT*kC)
[11]
  ED50: 8.7 mg/kg
